{"source": "patent US10273248B2", "about": "“Glucose uptake inhibitors” (Kadmon Corporation LLC, priority 2015, dated 2019)", "note": "Structures can show the parent of a compound that is named as a salt."}
{"system": "glycolysis in HT1080 cells", "experiment": "Glycolysis assay: oligomycin plus compound, cellular ATP by Cell Titer Glo", "format": "cell-based", "settings": "Homo sapiens, HT-1080, 1 h, 10 μM oligomycin, one hour, class symbols", "source_text": "Therefore, an assay was developed that utilizes the combination of the glucose uptake inhibitors disclosed herein with oligomycin, a well-characterized inhibitor of ATP synthase. Because oligomycin inhibits ATP derived from oxidative phosphorylation, any remaining ATP production is derived from glycolysis. By reading out cellular ATP levels using the Promega Cell Titer Glo kit, the extent of glycolysis inhibition by the glucose uptake inhibitors disclosed herein can be assessed. […] Utilizing this experimental set-up, the IC50 of glycolysis inhibition for each compound can be determined.\nDetermination of Glucose Uptake/GLUT Activity (Glycolysis Assay):\nHT1080 cells (as well as other cell types) were plated to confluency in 96-well plates. Cells were exposed to the combination of 10 μM Oligomycin (to block mitochondrial-derived ATP) and the glucose uptake inhibitors disclosed herein for one-hour, after which glycolytically-derived ATP was measured with the Cell Titer-Glo assay kit (Promega). Dose-response curves of the glucose uptake inhibitors disclosed herein were used to determine the IC50 for GLUT activity.", "units": {"IC50": "nM"}}
{"smiles": "Cn1ncc2c(Nc3ccc(-c4cn[nH]c4)cc3)nc(-c3cccc(OCC(=O)NC4CCC4)c3)nc21", "note": "[Example 54, 2-(3-(4-((4-(1H-pyrazol-4-yl)phenyl)amino)-1-methyl-1H-pyrazolo[3,4-d]pyrimidin-6-yl)phenoxy)-N-cyclobutylacetamide]", "IC50": "251 to 500"}
{"smiles": "CC(C)NC(=O)COc1cccc(-c2nc(Nc3ccc(-c4cn[nH]c4)cc3)c3cnn(C)c3n2)c1", "note": "[Example 55, 2-(3-(4-((4-(1H-pyrazol-4-yl)phenyl)amino)-1-methyl-1H-pyrazolo[3,4-d]pyrimidin-6-yl)phenoxy)-N-isopropylacetamide]", "IC50": "251 to 500"}
{"smiles": "Cn1ncc2c(Nc3ccc(-c4cn[nH]c4)cc3)nc(-c3cccc(OCC(=O)NC4CCCC4)c3)nc21", "note": "[Example 56, 2-(3-(4-((4-(1H-pyrazol-4-yl)phenyl)amino)-1-methyl-1H-pyrazolo[3,4-d]pyrimidin-6-yl)phenoxy)-N-cyclopentylacetamide]", "IC50": "101 to 250"}
{"smiles": "CC(C)CNC(=O)COc1cccc(-c2nc(Nc3ccc(-c4cn[nH]c4)cc3)c3cnn(C)c3n2)c1", "note": "[Example 57, 2-(3-(4-((4-(1H-pyrazol-4-yl)phenyl)amino)-1-methyl-1H-pyrazolo[3,4-d]pyrimidin-6-yl)phenoxy)-N-isobutylacetamide]", "IC50": "101 to 250"}
{"smiles": "CC(C)NC(=O)COc1cccc(-c2nc(Nc3ccc(-c4cn[nH]c4)cc3)c3c(cnn3C)n2)c1", "note": "[Example 58, 2-(3-(7-((4-(1H-pyrazol-4-yl)phenyl)amino)-1-methyl-1H-pyrazolo[4,3-d]pyrimidin-5-yl)phenoxy)-N-isopropylacetamide]", "IC50": "> 1000"}
{"smiles": "Cn1ncc2nc(-c3cccc(OCC(=O)NC4CCC4)c3)nc(Nc3ccc(-c4cn[nH]c4)cc3)c21", "note": "[Example 59, 2-(3-(7-((4-(1H-pyrazol-4-yl)phenyl)amino)-1-methyl-1H-pyrazolo[4,3-d]pyrimidin-5-yl)phenoxy)-N-cyclobutylacetamide]", "IC50": "> 1000"}
{"smiles": "Cn1ncc2nc(-c3cccc(OCC(=O)NC4CCCC4)c3)nc(Nc3ccc(-c4cn[nH]c4)cc3)c21", "note": "[Example 60, 2-(3-(7-((4-(1H-pyrazol-4-yl)phenyl)amino)-1-methyl-1H-pyrazolo[4,3-d]pyrimidin-5-yl)phenoxy)-N-cyclopentylacetamide]", "IC50": "501 to 1000"}
{"smiles": "CC(C)CNC(=O)COc1cccc(-c2nc(Nc3ccc(-c4cn[nH]c4)cc3)c3c(cnn3C)n2)c1", "note": "[Example 61, 2-(3-(7-((4-(1H-pyrazol-4-yl)phenyl)amino)-1-methyl-1H-pyrazolo[4,3-d]pyrimidin-5-yl)phenoxy)-N-isobutylacetamide]", "IC50": "> 1000"}
{"smiles": "CC(C)NC(=O)COc1cccc(-c2nc(Nc3ccc(-c4cn[nH]c4)cc3)c3ccncc3n2)c1", "note": "[Example 62, 2-(3-(4-((4-(1H-pyrazol-4-yl)phenyl)amino)pyrido[3,4-d]pyrimidin-2-yl)phenoxy)-N-isopropylacetamide]", "IC50": "10 to 100"}
{"smiles": "O=C(COc1cccc(-c2nc(Nc3ccc(-c4cn[nH]c4)cc3)c3ccncc3n2)c1)NC1CCC1", "note": "[Example 63, 2-(3-(4-((4-(1H-pyrazol-4-yl)phenyl)amino)pyrido[3,4-d]pyrimidin-2-yl)phenoxy)-N-cyclobutylacetamide]", "IC50": "10 to 100"}
{"smiles": "O=C(COc1cccc(-c2nc(Nc3ccc(-c4cn[nH]c4)cc3)c3ccncc3n2)c1)NC1CCCC1", "note": "[Example 64, 2-(3-(4-((4-(1H-pyrazol-4-yl)phenyl)amino)pyrido[3,4-d]pyrimidin-2-yl)phenoxy)-N-cyclopentylacetamide]", "IC50": "10 to 100"}
{"smiles": "CC(C)NC(=O)COc1cccc(-c2nc(Nc3ccc(-c4cn[nH]c4)cc3)c3ncsc3n2)c1", "note": "[Example 65, 2-(3-(7-((4-(1H-pyrazol-4-yl)phenyl)amino)thiazolo[5,4-d]pyrimidin-5-yl)phenoxy)-N-isopropylacetamide]", "IC50": "251 to 500"}
{"smiles": "O=C(COc1cccc(-c2nc(Nc3ccc(-c4cn[nH]c4)cc3)c3ncsc3n2)c1)NC1CCC1", "note": "[Example 66, 2-(3-(7-((4-(1H-pyrazol-4-yl)phenyl)amino)thiazolo[5,4-d]pyrimidin-5-yl)phenoxy)-N-cyclobutylacetamide]", "IC50": "251 to 500"}
{"smiles": "O=C(COc1cccc(-c2nc(Nc3ccc(-c4cn[nH]c4)cc3)c3ncsc3n2)c1)NC1CCCC1", "note": "[Example 67, 2-(3-(7-((4-(1H-pyrazol-4-yl)phenyl)amino)thiazolo[5,4-d]pyrimidin-5-yl)phenoxy)-N-cyclopentylacetamide]", "IC50": "101 to 250"}
{"smiles": "CC(C)CNC(=O)COc1cccc(-c2nc(Nc3ccc(-c4cn[nH]c4)cc3)c3ncsc3n2)c1", "note": "[Example 68, 2-(3-(7-((4-(1H-pyrazol-4-yl)phenyl)amino)thiazolo[5,4-d]pyrimidin-5-yl)phenoxy)-N-isobutylacetamide]", "IC50": "251 to 500"}
{"smiles": "O=C(Nc1cccc(-c2nc3c(c(Nc4ccc(-c5cn[nH]c5)cc4)n2)COC3)c1)c1cncc(Cl)c1", "note": "[Example 69, N-(3-(4-((4-(1H-pyrazol-4-yl)phenyl)amino)-5,7-dihydrofuro[3,4-d]pyrimidin-2-yl)phenyl)-5-chloronicotinamide]", "IC50": "10 to 100"}
{"smiles": "CC(C)(C)NC(=O)COc1cccc(-c2nc3c(c(Nc4ccc(-c5cn[nH]c5)cc4)n2)COC3)c1", "note": "[Example 70, 2-(3-(4-((4-(1H-pyrazol-4-yl)phenyl)amino)-5,7-dihydrofuro[3,4-d]pyrimidin-2-yl)phenoxy)-N-(tert-butyl)acetamide dihydrochloride]", "IC50": "10 to 100"}
{"smiles": "Cc1ccc(C(=O)Nc2cccc(-c3nc4c(c(Nc5ccc(-c6cn[nH]c6)cc5)n3)COC4)c2)cn1", "note": "[Example 72, N-(3-(4-((4-(1H-pyrazol-4-yl)phenyl)amino)-5,7-dihydrofuro[3,4-d]pyrimidin-2-yl)phenyl)-6-methylnicotinamide]", "IC50": "10 to 100"}
{"smiles": "Cc1cncc(C(=O)Nc2cccc(-c3nc4c(c(Nc5ccc(-c6cn[nH]c6)cc5)n3)COC4)c2)c1", "note": "[Example 73, N-(3-(4-((4-(1H-pyrazol-4-yl)phenyl)amino)-5,7-dihydrofuro[3,4-d]pyrimidin-2-yl)phenyl)-5-methylnicotinamide]", "IC50": "10 to 100"}
{"smiles": "Cc1ccncc1C(=O)Nc1cccc(-c2nc3c(c(Nc4ccc(-c5cn[nH]c5)cc4)n2)COC3)c1", "note": "[Example 74, N-(3-(4-((4-(1H-pyrazol-4-yl)phenyl)amino)-5,7-dihydrofuro[3,4-d]pyrimidin-2-yl)phenyl)-4-methylnicotinamide]", "IC50": "101 to 250"}
{"smiles": "O=C(Nc1cccc(-c2nc3c(c(Nc4ccc(-c5cn[nH]c5)cc4)n2)COC3)c1)c1cncc(F)c1", "note": "[Example 75, N-(3-(4-((4-(1H-pyrazol-4-yl)phenyl)amino)-5,7-dihydrofuro[3,4-d]pyrimidin-2-yl)phenyl)-5-fluoronicotinamide]", "IC50": "10 to 100"}
{"smiles": "CCC(CC)NC(=O)COc1cccc(-c2nc3c(c(Nc4ccc(-c5cn[nH]c5)cc4)n2)COC3)c1", "note": "[Example 76, 2-(3-(4-((4-(1H-pyrazol-4-yl)phenyl)amino)-5,7-dihydrofuro[3,4-d]pyrimidin-2-yl)phenoxy)-N-(pentan-3-yl)acetamide dihydrochloride]", "IC50": "10 to 100"}
{"smiles": "CCC(C)NC(=O)COc1cccc(-c2nc3c(c(Nc4ccc(-c5cn[nH]c5)cc4)n2)COC3)c1", "note": "(stereo not drawn) [Example 77, 2-(3-(4-((4-(1H-pyrazol-4-yl)phenyl)amino)-5,7-dihydrofuro[3,4-d]pyrimidin-2-yl)phenoxy)-N-(sec-butyl)acetamide]", "IC50": "10 to 100"}
{"smiles": "CC(C)CNC(=O)COc1cccc(-c2nc3c(c(Nc4ccc(-c5cn[nH]c5)cc4)n2)COC3)c1", "note": "[Example 78, 2-(3-(4-((4-(1H-pyrazol-4-yl)phenyl)amino)-5,7-dihydrofuro[3,4-d]pyrimidin-2-yl)phenoxy)-N-isobutylacetamide]", "IC50": "10 to 100"}
